Here are results for 15 substances from patent US8178506B2, “Oligomeric compounds and compositions for use in modulation of small non-coding RNAs” (Regulus Therapeutics Inc., priority 2003, dated 2012).

In the oligonucleotide strings, read from the 5' end, every base follows the letter of its sugar. An asterisk marks phosphorothioate; unmarked linkages are phosphodiester. Other units and linkages are bracketed, terminal groups are in braces. A string of capitals states the bases alone. e = 2'-O-(2-methoxyethyl) (MOE); [5mC] = 5-methylcytosine; d = 2'-deoxy (DNA)

Common to all, as to format: cell-based, human
For one data set, the system named is aP2. The data set is described as follows: aP2 mRNA expression in adipocytes (real-time PCR). The following applies: for aP2 mRNA: Table 75. For orientation: Quantitative PCR measures a nucleic acid by following its amplification.
A further data set has as its system HSL. As to the kind of experiment: HSL mRNA expression in adipocytes (real-time PCR).
The test system of the next data set is PPARγ. As to the kind of experiment: PPARγ mRNA expression in adipocytes (real-time PCR).
In another data set the test system is adipocytes. As to the kind of experiment: Triglyceride accumulation assay in adipocytes.
In a further data set the test system is Glut4. The data set is described as follows: Glut4 mRNA expression in adipocytes (real-time PCR).
Setting [1] is: differentiating adipocytes transfected with oligomeric compound.
Where [2] appears, read: differentiating adipocytes transfected with oligomeric compound, Table 75.
Where [3] appears, read: Table 17, differentiating adipocytes, control = treatment with ISIS 342673.
The mark [4] stands for this setting: Table 18, differentiating adipocytes, control = treatment with ISIS 342673.

As for “328340 (eT*eA*eA*eT*eA*dT*dA*dT*dA*dT*dT*dT*d[5mC]*dA*d[5mC]*eT*eA*e[5mC]*eG*e[5mC]) [compound 328340]”, in the data set on aP2 (setting [1]), the “AP2 mRNA” value is on record as 85 percentage of untreated control (UTC). In the data set with HSL (setting [1]), the “HSL mRNA” value is on record as 130 percentage of untreated control (UTC). Moreover, in the data set with PPARγ (setting [1]), the “PPAR gamma mRNA” value was 110 percentage of untreated control (UTC). The “TG (triglyceride accumulation)” value with adipocytes (setting [1]) is reported as 76 percentage of untreated control (UTC). Also, the “GLUT4 mRNA” value in the data set on Glut4 (setting [1]) was 112 percentage of untreated control (UTC).
As to “328095 (antisense eT*e[5mC]*eA*e[5mC]*eA*eG*eA*eG*eA*eA*eA*eA*e[5mC]*eA*eA*e[5mC]*eT*eG*eG*eT*eA) [compound 328095]”, the “aP2 mRNA” value in the data set on aP2 (setting [1]) is 70 percentage of untreated control (UTC). Further, the “HSL mRNA” value in the data set with HSL (setting [2]) is reported as 83 percentage of untreated control (UTC). Besides, the “PPAR gamma mRNA” value with PPARγ (setting [2]) is on record as 92 percentage of untreated control (UTC). In addition, the “TG (triglyceride accumulation)” value in the data set with adipocytes (setting [2]) is 110 percentage of untreated control (UTC). In the data set on Glut4 (setting [2]), the “GLUT4 mRNA” value is recorded as 98 percentage of untreated control (UTC).
For “341795 (antisense AACCAAUGUGCAGACUACUGUA; all 2'-MOE, all phosphorothioate, methylation of C and T or U not given here) [compound 341795]”, the “aP2 mRNA” value in the data set on aP2 (setting [1]) is reported as 76 percentage of untreated control (UTC). For the same substance, the “HSL mRNA” value in the data set on HSL (setting [2]) was 74 percentage of untreated control (UTC). The “PPAR gamma mRNA” value in the data set on PPARγ (setting [2]) was 74 percentage of untreated control (UTC). For the same substance, the “TG (triglyceride accumulation)” value in the data set on adipocytes (setting [2]) is listed as 57 percentage of untreated control (UTC). In addition, in the data set with Glut4 (setting [2]), the “GLUT4 mRNA” value is given as 55 percentage of untreated control (UTC).
Turning to “344616 (AGAGGUCGACCGUGUAAUGUGC; anti-miR; all 2'-MOE, all phosphorothioate, methylation of C and T or U not given here) [compound 344616]”, in the data set on aP2 (setting [1]), the “aP2 mRNA” value is recorded as 26 percentage of untreated control (UTC). Also, in the data set with HSL (setting [2]), the “HSL mRNA” value is given as 23 percentage of untreated control (UTC). In the data set on PPARγ (setting [2]), the “PPAR gamma mRNA” value was 36 percentage of untreated control (UTC). The “TG (triglyceride accumulation)” value in the data set with adipocytes (setting [2]) is on record as 32 percentage of untreated control (UTC). In addition, the “GLUT4 mRNA” value with Glut4 (setting [2]) is listed as 2 percentage of untreated control (UTC).
On to “328122 (antisense e[5mC]*eA*eA*eA*eA*e[5mC]*eA*eT*eA*eA*eA*eA*eA*eT*e[5mC]*e[5mC]*eT*eT*eG*e[5mC]*eA) [compound 328122]”, for which the “AP2 mRNA” value in the data set with aP2 (setting [3]) was 79.3 percentage of control. The “aP2 mRNA” value in the data set with aP2 (setting [1]) is listed as 99 percentage of untreated control (UTC). Moreover, the “HSL mRNA” value with HSL (setting [3]) is 72.7 percentage of control; in the data set with HSL (setting [2]), 89 percentage of untreated control (UTC). Moreover, the “PPAR gamma mRNA” value is on record as 77.8 percentage of control with PPARγ (setting [3]) and 103 percentage of untreated control (UTC) in the data set with PPARγ (setting [2]). Further, the figures for the “TG (triglyceride accumulation)” value with adipocytes (setting [3]) and with adipocytes (setting [2]) were 78.9 percentage of control and 97 percentage of untreated control (UTC), respectively. Moreover, the “GLUT4 mRNA” value in the data set on Glut4 (setting [3]) was 85.9 percentage of control; with Glut4 (setting [2]), 91 percentage of untreated control (UTC).
Regarding “328116 (antisense e[5mC]*eA*eA*eA*eA*eT*eT*eG*e[5mC]*eA*eA*eG*e[5mC]*eA*eA*eA*eT*eT*eG*e[5mC]*eA) [compound 328116]”, in the data set on aP2 (setting [3]), the “AP2 mRNA” value was 87.7 percentage of control. In the data set with aP2 (setting [1]), the “aP2 mRNA” value is 99 percentage of untreated control (UTC). Besides, the “HSL mRNA” value in the data set on HSL (setting [3]) is reported as 75.8 percentage of control; in the data set with HSL (setting [2]), 91 percentage of untreated control (UTC). Besides, the “PPAR gamma mRNA” value is recorded as 78.4 percentage of control with PPARγ (setting [3]) and 95 percentage of untreated control (UTC) in the data set with PPARγ (setting [2]). Also, the “TG (triglyceride accumulation)” value in the data set with adipocytes (setting [3]) is reported as 82.1 percentage of control; with adipocytes (setting [2]), 107 percentage of untreated control (UTC). Also, the “GLUT4 mRNA” value with Glut4 (setting [3]) is on record as 75.2 percentage of control; in the data set on Glut4 (setting [2]), 105 percentage of untreated control (UTC).
For “344342 (AUGCUUUUUGGGGUAAGGGCUU; anti-miR; all 2'-MOE, all phosphorothioate, methylation of C and T or U not given here) [compound 344342]”, the “aP2 mRNA” value in the data set with aP2 (setting [1]) is listed as 88 percentage of untreated control (UTC). Besides, the “HSL mRNA” value in the data set on HSL (setting [2]) was 87 percentage of untreated control (UTC). Besides, the “PPAR gamma mRNA” value with PPARγ (setting [2]) is recorded as 83 percentage of untreated control (UTC). For the same substance, in the data set on adipocytes (setting [2]), the “TG (triglyceride accumulation)” value is given as 88 percentage of untreated control (UTC). The “GLUT4 mRNA” value in the data set on Glut4 (setting [2]) is listed as 71 percentage of untreated control (UTC).
For “341797 (antisense ACAAGUGCCUUCACUGCAGU; all 2'-MOE, all phosphorothioate, methylation of C and T or U not given here) [compound 341797]”, the “aP2 mRNA” value in the data set with aP2 (setting [1]) was 45 percentage of untreated control (UTC). In addition, the “HSL mRNA” value with HSL (setting [2]) is 29 percentage of untreated control (UTC). For the same substance, in the data set with PPARγ (setting [2]), the “PPAR gamma mRNA” value is 50 percentage of untreated control (UTC). Moreover, the “TG (triglyceride accumulation)” value in the data set with adipocytes (setting [2]) was 20 percentage of untreated control (UTC). Besides, the “GLUT4 mRNA” value with Glut4 (setting [2]) is given as 17 percentage of untreated control (UTC).
The like results for “346919 (CUACCUGCACGAACAGCACUUUG; all 2'-MOE, all phosphorothioate, methylation of C and T or U not given here) [compound 346919]” were, in that order, 64 percentage of untreated control (UTC), 45 percentage of untreated control (UTC), 65 percentage of untreated control (UTC), 44 percentage of untreated control (UTC) and 50 percentage of untreated control (UTC).
The like results for “341799 (antisense ACCUAAUAUAUCAAACAUAUCA; all 2'-MOE, all phosphorothioate, methylation of C and T or U not given here) [compound 341799]” were, in that order, 101 percentage of untreated control (UTC), 103 percentage of untreated control (UTC), 89 percentage of untreated control (UTC), 98 percentage of untreated control (UTC) and 89 percentage of untreated control (UTC).
As to “340354 (antisense UCAGACCGAGACAAGUGCAAUG; all 2'-MOE, all phosphorothioate, methylation of C and T or U not given here) [compound 340354]”, in the data set on aP2 (setting [1]), the “aP2 mRNA” value is reported as 72 percentage of untreated control (UTC). For the same substance, the “HSL mRNA” value with HSL (setting [2]) is recorded as 56 percentage of untreated control (UTC). In the data set on PPARγ (setting [2]), the “PPAR gamma mRNA” value is 74 percentage of untreated control (UTC). In addition, the “TG (triglyceride accumulation)” value with adipocytes (setting [2]) is recorded as 64 percentage of untreated control (UTC). In the data set on Glut4 (setting [2]), the “GLUT4 mRNA” value was 61 percentage of untreated control (UTC).
As for “328120 (antisense eA*eA*eG*eA*eA*eG*eG*eA*eA*eG*eG*eA*eG*eG*eG*eA*eA*eA*eG*e[5mC]*eA) [compound 328120]”, in the data set with aP2 (setting [3]), the “AP2 mRNA” value is 81.0 percentage of control. For the same substance, the “aP2 mRNA” value in the data set on aP2 (setting [1]) is on record as 80 percentage of untreated control (UTC). The “HSL mRNA” value with HSL (setting [3]) is listed as 77.7 percentage of control; in the data set with HSL (setting [2]), 67 percentage of untreated control (UTC). Moreover, the “PPAR gamma mRNA” value is reported as 70.5 percentage of control in the data set on PPARγ (setting [3]) and 73 percentage of untreated control (UTC) with PPARγ (setting [2]). The “TG (triglyceride accumulation)” value is 82.7 percentage of control with adipocytes (setting [3]) and 80 percentage of untreated control (UTC) in the data set on adipocytes (setting [2]). The figures for the “GLUT4 mRNA” value in the data set with Glut4 (setting [3]) and with Glut4 (setting [2]) were 94.8 percentage of control and 68 percentage of untreated control (UTC), respectively.
With “346685 (GGCGGAACUUAGCCACUGUGAA; all 2'-MOE, all phosphorothioate, methylation of C and T or U not given here) [compound 346685]”, the “aP2 mRNA” value in the data set on aP2 (setting [1]) is 181 percentage of untreated control (UTC). In addition, the “HSL mRNA” value in the data set on HSL (setting [2]) is reported as 172 percentage of untreated control (UTC). Besides, in the data set on PPARγ (setting [2]), the “PPAR gamma mRNA” value is reported as 138 percentage of untreated control (UTC). For the same substance, the “TG (triglyceride accumulation)” value in the data set on adipocytes (setting [2]) is listed as 164 percentage of untreated control (UTC). Moreover, in the data set on Glut4 (setting [2]), the “GLUT4 mRNA” value is 233 percentage of untreated control (UTC).
Consider “328107 (antisense e[5mC]*eT*eG*eT*eG*eA*e[5mC]*eT*eT*e[5mC]*eT*e[5mC]*eT*eA*eT*e[5mC]*eT*eG*e[5mC]*e[5mC]*eT) [compound 328107]”, for which, in the data set on aP2 (setting [4]), the “AP2 mRNA” value is recorded as 67.5 percentage of control. Besides, the “aP2 mRNA” value in the data set on aP2 (setting [1]) is reported as 68 percentage of untreated control (UTC). In addition, the “HSL mRNA” value with HSL (setting [4]) is recorded as 61.0 percentage of control; with HSL (setting [2]), 55 percentage of untreated control (UTC). Also, the “PPAR gamma mRNA” value is 79.3 percentage of control in the data set with PPARγ (setting [4]) and 71 percentage of untreated control (UTC) in the data set on PPARγ (setting [2]). The entries for the “TG (triglyceride accumulation)” value with adipocytes (setting [4]) and in the data set on adipocytes (setting [2]) were 66.7 percentage of control and 51 percentage of untreated control (UTC), respectively. The “GLUT4 mRNA” value with Glut4 (setting [4]) is 72.5 percentage of control; with Glut4 (setting [2]), 52 percentage of untreated control (UTC).
Regarding “340352 (antisense CACAAGAUCGGAUCUACGGGUU; all 2'-MOE, all phosphorothioate, methylation of C and T or U not given here) [compound 340352]”, the “aP2 mRNA” value in the data set with aP2 (setting [1]) was 107 percentage of untreated control (UTC). The “HSL mRNA” value with HSL (setting [2]) is reported as 123 percentage of untreated control (UTC). In addition, in the data set with PPARγ (setting [2]), the “PPAR gamma mRNA” value was 102 percentage of untreated control (UTC). Further, the “TG (triglyceride accumulation)” value with adipocytes (setting [2]) was 110 percentage of untreated control (UTC). In addition, the “GLUT4 mRNA” value with Glut4 (setting [2]) is recorded as 97 percentage of untreated control (UTC).
